# Test results reported in patent publication US20250230193A1, “CYCLIC COMPOUND HAVING SELECTIVE KRAS INHIBITORY EFFECT ON HRAS AND NRAS” (CHUGAI SEIYAKU KABUSHIKI KAISHA, priority 2022, published 2025).
# Key:
# [1] = molecular target: GDP-bound NRAS wild-type protein (Homo sapiens, UniProt P01111); assay: Binding to NRAS by surface plasmon resonance (SPR), Single Cycle Kinetics; settings: KD ratio, GDP-bound NRAS wild-type vs GDP-bound KRAS wild-type, SPR
# [2] = molecular target: GDP-bound HRAS wild-type protein (Homo sapiens, UniProt P01112); assay: Binding to HRAS by surface plasmon resonance (SPR), Single Cycle Kinetics; settings: KD ratio, GDP-bound HRAS wild-type vs GDP-bound KRAS wild-type, SPR
# GDP-bound HRAS wild-type protein, sequence (P01112 whole entry): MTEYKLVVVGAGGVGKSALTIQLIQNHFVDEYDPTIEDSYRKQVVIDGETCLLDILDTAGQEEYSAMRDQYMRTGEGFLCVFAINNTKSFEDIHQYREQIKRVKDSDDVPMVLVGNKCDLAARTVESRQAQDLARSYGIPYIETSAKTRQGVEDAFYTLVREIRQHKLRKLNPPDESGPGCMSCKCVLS
# GDP-bound NRAS wild-type protein, sequence (P01111 whole entry): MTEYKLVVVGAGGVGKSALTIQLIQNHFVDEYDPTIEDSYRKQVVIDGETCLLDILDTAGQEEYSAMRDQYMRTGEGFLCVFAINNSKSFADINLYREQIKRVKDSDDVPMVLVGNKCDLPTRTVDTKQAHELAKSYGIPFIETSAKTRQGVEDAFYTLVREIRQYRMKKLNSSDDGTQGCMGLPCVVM
SMILES,NRAS/KRAS (ratio of KD value for NRAS to KD value for KRAS) [1],HRAS/KRAS (ratio of KD value for HRAS to KD value for KRAS) [2]
CCO[C@@H]1C[C@H]2C(=O)NC3(CC(C)(C)C3)C(=O)N(C)[C@@H](C3CCCC3)C(=O)N(C)[C@H](C(=O)N(C)C)CC(=O)N(C)[C@@H](CC3CCC3)C(=O)N[C@@H]([C@@H](C)CC)C(=O)N(C)CC(=O)N(C)[C@H]3C/C=C\CCN(C3=O)[C@@H](Cc3ccc(C(F)(F)F)cc3)C(=O)N(C)CC(=O)N[C@@H](CCc3ccc(C(F)(F)F)c(Cl)c3)C(=O)N2C1 [PP1752],A (a compound having 10 or more and less than 20 is denoted as A),A (a compound having 10 or more and less than 20 is denoted as A)
CCO[C@@H]1C[C@H]2C(=O)NC3(CC(C)(C)C3)C(=O)N(C)[C@@H](C3CCCC3)C(=O)N(C)[C@H](C(=O)N(C)C)CC(=O)N(C)[C@@H](COC)C(=O)N[C@@H]([C@@H](C)CC)C(=O)N(C)CC(=O)N(C)[C@H]3C/C=C\CCN(C3=O)[C@@H](Cc3ccc(C(F)(F)F)cc3)C(=O)N(C)CC(=O)N[C@@H](CCc3ccc(C(F)(F)F)c(Cl)c3)C(=O)N2C1 [PP1753],A (a compound having 10 or more and less than 20 is denoted as A),A (a compound having 10 or more and less than 20 is denoted as A)
CCCOC[C@H]1C(=O)N[C@@H]([C@@H](C)CC)C(=O)N(C)CC(=O)N(C)[C@H]2C/C=C\CCN(C2=O)[C@@H](Cc2ccc(C(F)(F)F)cc2)C(=O)N(C)CC(=O)N[C@@H](CCc2ccc(C(F)(F)F)c(Cl)c2)C(=O)N2C[C@H](OCC)C[C@H]2C(=O)NC2(CC(C)(C)C2)C(=O)N(C)[C@@H](C2CCCC2)C(=O)N(C)[C@H](C(=O)N(C)C)CC(=O)N1C [PP1754],A (a compound having 10 or more and less than 20 is denoted as A),A (a compound having 10 or more and less than 20 is denoted as A)
CCCN(C)C(=O)[C@@H]1CC(=O)N(C)[C@@H](CC(F)F)C(=O)N[C@@H]([C@@H](C)CC)C(=O)N(C)CC(=O)N(C)[C@H]2C/C=C\CCN(C2=O)[C@@H](Cc2ccc(C(F)(F)F)cc2)C(=O)N(C)CC(=O)N[C@@H](CCc2cc(F)c(Cl)c(F)c2)C(=O)N2C[C@H](OCC)C[C@H]2C(=O)NC2(CC(C)(C)C2)C(=O)N(C)[C@@H](C2CCCC2)C(=O)N1C [PP1757],AA (a compound having 20 or more is denoted as AA),A (a compound having 10 or more and less than 20 is denoted as A)
CCC[C@H]1C(=O)N[C@@H]([C@@H](C)CC)C(=O)N(C)CC(=O)N(C)[C@H]2C/C=C\CCN(C2=O)[C@@H](Cc2ccc(C(F)(F)F)cc2)C(=O)N(C)CC(=O)N[C@@H](CCc2cc(F)c(Cl)c(F)c2)C(=O)N2C[C@H](OCC)C[C@H]2C(=O)NC2(CC(C)(C)C2)C(=O)N(C)[C@@H](C2CCCC2)C(=O)N(C)[C@H](C(=O)N(C)C)CC(=O)N1C [PP1758],AA (a compound having 20 or more is denoted as AA),A (a compound having 10 or more and less than 20 is denoted as A)
CCO[C@@H]1C[C@H]2C(=O)NC3(CC(C)(C)C3)C(=O)N(C)[C@@H](C3CCCC3)C(=O)N(C)[C@H](C(=O)N(C)C)CC(=O)N(C)[C@@H](CC3CC3)C(=O)N[C@@H]([C@@H](C)CC)C(=O)N(C)CC(=O)N(C)[C@H]3C/C=C\CCN(C3=O)[C@@H](Cc3ccc(C(F)(F)F)cc3)C(=O)N(C)CC(=O)N[C@@H](CCc3cc(F)c(Cl)c(F)c3)C(=O)N2C1 [PP1759],A (a compound having 10 or more and less than 20 is denoted as A),A (a compound having 10 or more and less than 20 is denoted as A)
CCO[C@@H]1C[C@H]2C(=O)NC3(CC(C)(C)C3)C(=O)N(C)[C@@H](C3CCCC3)C(=O)N(C)[C@H](C(=O)N(C)C)CC(=O)N(C)[C@@H](CC(C)C)C(=O)N[C@@H]([C@@H](C)CC)C(=O)N(C)CC(=O)N(C)[C@H]3C/C=C\CCN(C3=O)[C@@H](Cc3ccc(C(F)(F)F)cc3)C(=O)N(C)CC(=O)N[C@@H](CCc3cc(F)c(Cl)c(F)c3)C(=O)N2C1 [PP1761],A (a compound having 10 or more and less than 20 is denoted as A),A (a compound having 10 or more and less than 20 is denoted as A)
CCO[C@@H]1C[C@H]2C(=O)NC3(CC(C)(C)C3)C(=O)N(C)[C@@H](C3CCCC3)C(=O)N(C)[C@H](C(=O)N(C)C)CC(=O)N(C)[C@@H](CC3CCC3)C(=O)N[C@@H]([C@@H](C)CC)C(=O)N(C)CC(=O)N(C)[C@H]3C/C=C\CCN(C3=O)[C@@H](Cc3ccc(C(F)(F)F)cc3)C(=O)N(C)CC(=O)N[C@@H](CCc3cc(F)c(Cl)c(F)c3)C(=O)N2C1 [PP1762],A (a compound having 10 or more and less than 20 is denoted as A),A (a compound having 10 or more and less than 20 is denoted as A)
CCCN(C)C(=O)[C@@H]1CC(=O)N(C)[C@@H](COC)C(=O)N[C@@H]([C@@H](C)CC)C(=O)N(C)CC(=O)N(C)[C@H]2C/C=C\CCN(C2=O)[C@@H](Cc2ccc(C(F)(F)F)cc2)C(=O)N(C)CC(=O)N[C@@H](CCc2cc(F)c(Cl)c(F)c2)C(=O)N2C[C@H](OCC)C[C@H]2C(=O)NC2(CC(C)(C)C2)C(=O)N(C)[C@@H](C2CCCC2)C(=O)N1C [PP1763],A (a compound having 10 or more and less than 20 is denoted as A),A (a compound having 10 or more and less than 20 is denoted as A)
CCCOC[C@H]1C(=O)N[C@@H]([C@@H](C)CC)C(=O)N(C)CC(=O)N(C)[C@H]2C/C=C\CCN(C2=O)[C@@H](Cc2ccc(C(F)(F)F)cc2)C(=O)N(C)CC(=O)N[C@@H](CCc2cc(F)c(Cl)c(F)c2)C(=O)N2C[C@H](OCC)C[C@H]2C(=O)NC2(CC(C)(C)C2)C(=O)N(C)[C@@H](C2CCCC2)C(=O)N(C)[C@H](C(=O)N(C)C)CC(=O)N1C [PP1764],AA (a compound having 20 or more is denoted as AA),A (a compound having 10 or more and less than 20 is denoted as A)
CCO[C@@H]1C[C@H]2C(=O)NC3(CCC3)C(=O)N(C)[C@@H](C3CCCC3)C(=O)N(C)[C@H](C(=O)N(C)C)CC(=O)N(CC)[C@@H](CC(C)C)C(=O)N[C@@H]([C@@H](C)CC)C(=O)N(C)CC(=O)N(C)[C@H]3C/C=C\CCN(C3=O)[C@@H](Cc3ccc(C(F)(F)F)cc3)C(=O)N(C)CC(=O)N[C@@H](CCc3cc(F)c(C(F)(F)F)c(F)c3)C(=O)N2C1 [PP1765],A (a compound having 10 or more and less than 20 is denoted as A),A (a compound having 10 or more and less than 20 is denoted as A)
CCC[C@H]1C(=O)N[C@@H]([C@@H](C)CC)C(=O)N(CCC)CC(=O)N(C)[C@H]2C/C=C\CCN(C2=O)[C@@H](Cc2ccc(C(F)(F)F)cc2)C(=O)N(C)CC(=O)N[C@@H](CCc2cc(F)c(C(F)(F)F)c(F)c2)C(=O)N2C[C@H](OCC)C[C@H]2C(=O)NC2(CCC2)C(=O)N(C)[C@@H](C2CCCC2)C(=O)N(C)[C@H](C(=O)N(C)C)CC(=O)N1C [PP1767],A (a compound having 10 or more and less than 20 is denoted as A),B (a compound having 3 or more and less than 10 is denoted as B)
CCO[C@@H]1C[C@H]2C(=O)NC3(CC(C)(C)C3)C(=O)N(C)[C@@H](C3CCCC3)C(=O)N(CC)[C@H](C(=O)N(C)C)CC(=O)N(C)[C@@H](CC)C(=O)N[C@@H]([C@@H](C)CC)C(=O)N(C)CC(=O)N(C)[C@H]3C/C=C\CCN(C3=O)[C@@H](Cc3ccc(C(F)(F)F)cc3)C(=O)N(C)CC(=O)N[C@@H](CCc3cc(F)c(C(F)(F)F)c(F)c3)C(=O)N2C1 [PP1768],A (a compound having 10 or more and less than 20 is denoted as A),A (a compound having 10 or more and less than 20 is denoted as A)
CCC[C@H]1C(=O)N[C@@H]([C@@H](C)CC)C(=O)N(C)CC(=O)N(C)[C@H]2C/C=C\CCN(C2=O)[C@@H](Cc2ccc(C(F)(F)F)cc2)C(=O)N(C)CC(=O)N[C@@H](CCc2cc(F)c(C(F)(F)F)c(F)c2)C(=O)N2C[C@H](OCC)C[C@H]2C(=O)NC2(CCC2)C(=O)N(C)[C@@H](C2CCCC2)C(=O)N(CCC)[C@H](C(=O)N(C)C)CC(=O)N1C [PP1769],A (a compound having 10 or more and less than 20 is denoted as A),A (a compound having 10 or more and less than 20 is denoted as A)
CCO[C@@H]1C[C@H]2C(=O)NC3(CC(C)(C)C3)C(=O)N(C)[C@@H](C3CCCC3)C(=O)N(C)[C@H](C(=O)N(C)CC)CC(=O)N(C)[C@@H](CC(C)C)C(=O)N[C@@H]([C@@H](C)CC)C(=O)NCC(=O)N(C)[C@H]3C/C=C\CCN(C3=O)[C@@H](Cc3ccc(C(F)(F)F)cc3)C(=O)N(C)CC(=O)N[C@@H](CCc3cc(F)c(C(F)(F)F)c(F)c3)C(=O)N2C1 [PP1771],A (a compound having 10 or more and less than 20 is denoted as A),A (a compound having 10 or more and less than 20 is denoted as A)
CCO[C@@H]1C[C@H]2C(=O)NC3(CC(C)(C)C3)C(=O)N(C)[C@@H](C3CCCC3)C(=O)N(C)[C@H](C(=O)N(C)C)CC(=O)N(CC)[C@@H](CC(C)C)C(=O)N[C@@H]([C@@H](C)CC)C(=O)NCC(=O)N(C)[C@H]3C/C=C\CCN(C3=O)[C@@H](Cc3ccc(C(F)(F)F)cc3)C(=O)N(C)CC(=O)N[C@@H](CCc3cc(F)c(C(F)(F)F)c(F)c3)C(=O)N2C1 [PP1772],B (a compound having 3 or more and less than 10 is denoted as B),B (a compound having 3 or more and less than 10 is denoted as B)
